The text below walks through data of article PMC8570331, “8-Hydroxyquinoline-Amino Acid Hybrids and Their Half-Sandwich Rh and Ru Complexes: Synthesis, Anticancer Activities, Solution Chemistry and Interaction with Biomolecules” (International Journal of Molecular Sciences, 2021).

Data set [1] has as its system Colo-320 human colon adenocarcinoma cell line (multidrug-resistant). The experiment in a line: MTT cytotoxicity assay in Colo-320. The conditions noted are these: 72 h incubation. The class given is cell-based. The protocol: The in vitro cytotoxic activity of the novel water-soluble amino acid derivatives of HQCl and their RhCp* and RuCym complexes was measured by the thiazolyl blue tetrazolium bromide (MTT) assay in two human colon adenocarcinoma cell lines (Colo-205 and Colo-320) and in one non-tumoral human lung fibroblast cell line (MRC-5). The results are given in terms of IC50 values (Table 1). Colo-205 is a drug-sensitive cell line with a normal ABCB1 transporter expression pattern, while Colo-320 is multidrug-resistant and overexpresses the ABCB1 system.
All cell culture reagents were obtained from Sigma-Aldrich and plasticware from Sarstedt (Nümbrecht, Germany). Human colonic Colo-205 doxorubicin-sensitive and Colo-320/MDR-LRP multidrug-resistant adenocarcinoma and MRC-5 human embryonal lung fibroblast cell lines were purchased from LGC Promochem, Teddington, UK. The colonic adenocarcinoma cells were cultured in Roswell Park Memorial Institute (RPMI) 1640 medium supplemented with 10% heat-inactivated fetal bovine serum, 2 mM L-glutamine, 1 mM sodium pyruvate and […]. The MRC-5 cell line was cultured in Eagle’s Minimal Essential Medium (EMEM, Sigma-Aldrich, St. Louis, MO, USA) supplemented with a non-essential amino acid (NEAA) mixture (Sigma-Aldrich, St. Louis, MO, USA) a selection of vitamins, 10% heat-inactivated foetal bovine serum (FBS), 2 mM L-glutamine (Sigma-Aldrich, St. Louis, MO, USA), 1 mM Na-pyruvate (Sigma-Aldrich, St. Louis, MO, USA), nystatin (Sigma-Aldrich, St. Louis, MO, USA) and a penicillin-streptomycin mixture (Sigma-Aldrich, St. Louis, MO, USA) in con-centrations of 100 U/L and 10 mg/L, respectively. The cells were incubated at 37 °C, in a 5% CO2, 95% air atmosphere. All cell lines were detached with Trypsin-Versene (EDTA) solution for 5 min at 37 °C.
The tested compounds were dissolved in 10% (v/v) DMSO/H2O using 4 mM concentration. Doxorubicin (Merck, Darmstadt, Germany) was used as a positive control. Then stock solutions were diluted in complete culture medium, and two-fold serial dilutions of compounds were prepared in 100 μL of the medium, horizontally. The semi-adherent colonic adenocarcinoma cells were treated with Trypsin-Versene (EDTA) solution. They were adjusted to a density of 1 × 10^4 cells in 100 μL of RPMI 1640 or EMEM medium and were added to each well, with the exception of the medium control wells. The final volume of the wells containing compounds and cells was 200 μL. The plates containing Colo-205, Colo-320 or MRC-5 cells were incubated at 37 °C for 72 h; at the end of the incubation period, 20 μL of MTT solution (from a stock solution of 5 mg/mL) were added to each well. After incubation at 37 °C for 4 h, 100 μL of SDS solution (10% in 0.01 M HCI) were added to each well, and the plates were further incubated at 37 °C overnight. […] The IC50 values were obtained from at least 3 independent experiments.

Data set [2] can be described thus: Rate of complex formation followed by UV-vis. As to conditions: pH 0.7, equimolar ligand and [M(arene)(H2O)3]2+. The class given is physicochemical. The method, then: The complex formation processes were followed in the absence of chloride ions, similar to our previous studies, to obtain comparative data. Time dependence of UV-vis spectra recorded for the equimolar solution of the ligand and [M(arene)(H2O)3]^2+ at pH 0.7 and 4.1 was followed. The charge-transfer band in the 340–500 nm region is a good indicator for complexation. […] The equilibration time decreased to <2 min for both RhCp* complexes at pH 4.1, while ~1.5 h was needed for the RuCym complexes, as it is shown in Figure S18. Although, in the isolated solid complexes, the neutral ligands are coordinated, in solution under this condition, the formation of complexes with the general formula [M(arene)(HQCl-D-(h)ProH−1)(H2O)]^+ is expected due to the deprotonation of the non-coordinating carboxyl group. In summary, these findings clearly indicate the high stability of the title complexes and the considerable difference in the rate of complex formation with the two types of metal ions.
Agilent Cary 8454 diode array spectrophotometer was utilized to obtain UV-vis spectra in the wavelength range 190–1100 nm. The path length (ℓ) was 1 cm in most cases (the actual ℓ is always indicated in the legends of the figures). The concentrations of the ligands and complexes were between 88 and 240 µM. […]

Data set [3] in a line: Solution stability of the complexes by 1H NMR. In kind it is physicochemical. As to conditions: pH 0.7, 24 h equilibration, 500 μM. The method, then: Bruker Avance III HD Ascend 500 Plus instrument (Billerica, MA, USA) was used for NMR studies. ^1H NMR spectroscopic measurements were carried out with a WATERGATE water suppression pulse scheme in the presence of 10% (v/v) D2O in most cases. DSS internal standard was added to samples to obtain reference peaks. Complex concentrations were 0.5 mM or 1.0 mM, and 0.5 equiv. HSA was added. ^1H NMR titrations were carried out in the presence of 0.2 M KNO3. With the FHA model peptide, the measurements were performed at 0.5 or 1 mM metal complex concentrations, and 1:1, 1:2 or 2:1 peptide-to-metal complex ratios were applied. The computer program HypSpec was used to obtain stability constants.

Data set [4] concerns human serum albumin (HSA). Put plainly: CD spectroscopy of HSA secondary structure. The class given is binding. The conditions noted are these: up to 5 equivalents complex, 50% without complex. The protocol: Possible changes in the secondary structure of HSA due to its interaction with the RhCp* and RuCym complexes of HQCl-D-hPro were investigated by CD spectroscopy. HSA is mostly composed of α-helices, and its CD spectrum can be characterized by two negative bands (208 and 222 nm). […] Only at higher complex excess (>10) we observed somewhat larger changes; however, such protein-to-complex ratios are far from the biologically relevant conditions.
CD spectroscopy experiments were performed by a JASCO-J-1500 (ABL&E–JASCO Hungary Ltd., Budapest, Hungary) spectrometer using 0.2 or 1 cm optical path length in the wavelength range from 200 to 250 or to 350 nm. The scanning speed was 200 nm/min. The analytical concentration of HSA and ct-DNA was constant (2 and 98 µM, respectively), and the concentration of the complexes was varied (0–26 and 0–47 µM, respectively).

For `Cc1c(C)c(C)[c-](C)c1C.O=C(O)[C@H]1CCC[NH+]1Cc1cc(Cl)c2cccnc2c1[O-].[Cl-].[Cl-].[Rh+3]` [RhCp*–HQCl-D-Pro, [RhCp*(HQCl-D-Pro)Cl]Cl], in data set [1], the IC50 is 34.3 ± 1 µM. Also, in data set [2], the “time to reach complex formation equilibrium” value is ~ 30 min.
As to `Cc1ccc(C(C)C)cc1.O=C(O)[C@H]1CCC[NH+]1Cc1cc(Cl)c2cccnc2c1[O-].[Cl-].[Cl-].[Ru+2]` [RuCym–HQCl-D-Pro, [RuCym(HQCl-D-Pro)Cl]Cl], the IC50 in data set [1] is above 100 µM.
On to `Cc1ccc(C(C)C)cc1.O=C(O)[C@H]1CCCC[NH+]1Cc1cc(Cl)c2cccnc2c1[O-].[Cl-].[Cl-].[Ru+2]` [RuCym–HQCl-D-hPro, [RuCym(HQCl-D-hPro)Cl]Cl], for which the “fraction of complex dissociated” value in data set [3] is on record as ~ 2%. Further, the IC50 in data set [1] is above 100 µM. Besides, in data set [4], the “α-helix content of HSA in the presence of the complex” value is reported as 46%.
With `Cc1c(C)c(C)[c-](C)c1C.O=C(O)[C@H]1CCCC[NH+]1Cc1cc(Cl)c2cccnc2c1[O-].[Cl-].[Cl-].[Rh+3]` [RhCp*–HQCl-D-hPro, [RhCp*(HQCl-D-hPro)Cl]Cl], the “fraction of complex dissociated” value in data set [3] is given as ~ 3%. Moreover, in data set [1], the midpoint of inhibition, the IC50, lay at 18.9 ± 0.54 µM. In data set [4], the “α-helix content of HSA in the presence of the complex” value is given as 47%. Also, the “time to reach complex formation equilibrium” value in data set [2] is listed as ~ 3 min.
